Results reported in patent US20240072809A1, “ASGPR-BINDING COMPOUNDS FOR THE DEGRADATION OF EXTRACELLULAR PROTEINS” (Avilar Therapeutics, Inc., priority 2020, published 2024).
Read-outs that look alike come from different tables or passages of the source.

Target: ASGPR (Homo sapiens (Human), UniProt P07306)
Assay: Affinity to ASGPR measured by surface plasmon resonance (SPR)
Format: binding
[1] = ASGPR ligands, Table 4, numeric lower bounds, read-out: ASGPR_PR Binding KD
[2] = ASGPR ligands, Table 4, class symbols, read-out: ASGPR_PR Binding KD
[3] = ASGPR ligands, Table 2, Biacore 8K, 25° C., steady state fit, read-out: SPR Binding External Calculation: KD

ASGPR, sequence (P07306 whole entry): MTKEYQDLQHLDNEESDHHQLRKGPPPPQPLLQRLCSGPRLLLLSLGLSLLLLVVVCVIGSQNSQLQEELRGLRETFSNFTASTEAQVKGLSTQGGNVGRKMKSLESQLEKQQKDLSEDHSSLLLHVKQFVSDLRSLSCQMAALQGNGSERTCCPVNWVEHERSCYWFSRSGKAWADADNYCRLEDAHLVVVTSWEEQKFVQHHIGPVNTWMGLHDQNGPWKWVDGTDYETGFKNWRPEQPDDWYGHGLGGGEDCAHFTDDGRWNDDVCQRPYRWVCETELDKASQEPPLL

Row | SMILES | Kd [2] [µM] | other results
1 | COc1cc(C(N)=O)cc(N[C@H]2CO[C@H](CO)[C@H](O)[C@@H]2O)n1 [Compound A365, 2-(((3S,4R,5R,6R)-4,5-dihydroxy-6-(hydroxymethyl)tetrahydro-2H-pyran-3-yl)amino)-6-methoxyisonicotinamide] |  | Kd [1]: > 20 µM
2 | CO[C@H]1O[C@H](CO)[C@H](O)[C@H](O)[C@H]1N [Compound A91, (2R,3R,4R,5R,6S)-5-amino-2-(hydroxymethyl)-6-methoxytetrahydro-2H-pyran-3,4-diol] | < 100 | 
3 | CCOc1cc(C#N)nc(N[C@H]2CO[C@H](CO)[C@H](O)[C@@H]2O)n1 [Compound A368, 2-(((3S,4R,5R,6R)-4,5-dihydroxy-6-(hydroxymethyl)tetrahydro-2H-pyran-3-yl)amino)-6-ethoxypyrimidine-4-carbonitrile] |  | Kd [1]: > 20 µM
4 | CN(C)C(=O)[C@@H]1CO[C@H](CO)[C@H](O)[C@@H]1O [Compound A170, (3R,4R,5R,6R)-4,5-dihydroxy-6-(hydroxymethyl)-N,N-dimethyltetrahydro-2H-pyran-3-carboxamide] |  | Kd [1]: > 200 µM
5 | OC[C@H]1OC[C@H](Nc2ncc(F)cc2F)[C@@H](O)[C@H]1O [Compound A103] |  | Kd [3]: 100 to 500 µM
6 | O=S(=O)(N[C@H]1CO[C@H](CO)[C@H](O)[C@@H]1O)C(F)(F)F [Compound A344] | < 100 | 
7 | O=C(N[C@@H]1CO[C@H](CO)[C@H](O)[C@@H]1O)c1ccccc1 [Compound A136, N-((3R,4R,5R,6R)-4,5-dihydroxy-6-(hydroxymethyl)tetrahydro-2H-pyran-3-yl)benzamide] | 100 to 500 | 
8 | OC[C@H]1OC[C@H](Nc2nc(N3CCOCC3)ns2)[C@@H](O)[C@H]1O [Compound A340, (2R,3R,4R,5S)-2-(hydroxymethyl)-5-((3-morpholino-1,2,4-thiadiazol-5-yl)amino)tetrahydro-2H-pyran-3,4-diol] | < 100 | 
9 | OC[C@H]1OC[C@H](Nc2ncccn2)[C@@H](O)[C@H]1O [Compound A318] | < 100 | 
10 | OC[C@H]1OC[C@H](Nc2cccc(C(F)(F)F)c2)[C@@H](O)[C@H]1O [Compound A355, (2R,3R,4R,5S)-2-(hydroxymethyl)-5-((3-(trifluoromethyl)phenyl)amino) tetrahydro-2H-pyran-3,4-diol] | < 100 | 
11 | O=c1ccn([C@H]2CO[C@H](CO)[C@H](O)[C@@H]2O)cc1 [Compound A345, 1-((3S,4R,5R,6R)-4,5-dihydroxy-6-(hydroxymethyl)tetrahydro-2H-pyran-3-yl)pyridin-4(1H)-one] | < 100 | 
12 | [N-]=[N+]=NCC1CO[C@H](CO)[C@H](O)[C@@H]1O (stereo partly drawn) [Compound A184, (2R,3R,4R)-5-(azidomethyl)-2-(hydroxymethyl)tetrahydro-2H-pyran-3,4-diol] |  | Kd [3]: < 100 µM
13 | OC[C@H]1OC[C@H](Nc2nc(Br)ns2)[C@@H](O)[C@H]1O [Compound A299, (2R,3R,4R,5S)-5-[(3-bromo-1,2,4-thiadiazol-5-yl)amino]-2-(hydroxymethyl)oxane-3,4-diol] | < 100 | 
14 | O=[N+]([O-])c1ccc(NCCOCCOCCOCCOC[C@H]2OC[C@H](Nc3nccc(C(F)(F)F)n3)[C@@H](O)[C@H]2O)c([N+](=O)[O-])c1 [Compound 35, (2R,3R,4R,5S)-2-(13-((2,4-dinitrophenyl)amino)-2,5,8,11-tetraoxatridecyl)-5-((4-(trifluoromethyl)pyrimidin-2-yl)amino)tetrahydro-2H-pyran-3,4-diol] |  | Kd (ASGPR ligands with linker, Table 5, read-out: ASGPR_SPR Binding KD): < 100 µM
15 | O=C(NC[C@@H]1CO[C@H](CO)[C@H](O)[C@@H]1O)C(F)(F)F [Compound A186, N-(((3R,4R,5R,6R)-4,5-dihydroxy-6-(hydroxymethyl)tetrahydro-2H-pyran-3-yl)methyl)-2,2,2-trifluoroacetamide] | > 1000 | 
16 | OC[C@H]1OC[C@H](Nc2nccc(C(F)F)n2)[C@@H](O)[C@H]1O [Compound A335] | < 100 | 
17 | OC[C@H]1OC[C@H](Nc2ncc(-c3ccccc3)cn2)[C@@H](O)[C@H]1O [Compound A311] |  | Kd [1]: > 20 µM
18 | CO[C@@H]1O[C@H](CO)[C@H](O)[C@H](O)[C@H]1N [Compound A90, (2R,3R,4R,5R,6R)-5-amino-2-(hydroxymethyl)-6-methoxytetrahydro-2H-pyran-3,4-diol] |  | Kd [3]: 100 to 500 µM
19 | O=C1CCCN1[C@@H]1CO[C@H](CO)[C@H](O)[C@@H]1O [Compound A180, 1-((3R,4R,5R,6R)-4,5-dihydroxy-6-(hydroxymethyl)tetrahydro-2H-pyran-3-yl)pyrrolidin-2-one] | < 100 | 
20 | CO[C@H]1O[C@H](CO)[C@H](O)[C@H](O)[C@H]1Nc1cccc(C(F)(F)F)n1 [Compound A381] | < 100 | 
21 | O=C(N[C@H]1CO[C@H](CO)[C@H](O)[C@@H]1O)c1ccccc1 [Compound A342, N-((3S,4R,5R,6R)-4,5-dihydroxy-6-(hydroxymethyl)tetrahydro-2H-pyran-3-yl)benzamide] | < 100 | 

Row | SMILES | Kd [2] [µM] | other results
22 | CO[C@@H]1O[C@H](CO)[C@H](O)[C@H](O)[C@H]1Nc1nc(N2CCOCC2)ns1 [Compound A117, (2R,3R,4R,5R,6R)-2-(hydroxymethyl)-6-methoxy-5-((3-morpholino-1,2,4-thiadiazol-5-yl)amino)tetrahydro-2H-pyran-3,4-diol] |  | Kd [3]: 100 to 500 µM
23 | CN1CCN(c2nsc(N[C@H]3CO[C@H](CO)[C@H](O)[C@@H]3O)n2)CC1 [Compound A338, (2R,3R,4R,5S)-2-(hydroxymethyl)-5-((3-(4-methylpiperazin-1-yl)-1,2,4-thiadiazol-5-yl)amino)tetrahydro-2H-pyran-3,4-diol] | < 100 | 
24 | OC[C@H]1OC[C@@H](Nc2nc(Cl)ns2)[C@@H](O)[C@H]1O [Compound A146, (2R,3R,4R,5R)-5-((3-chloro-1,2,4-thiadiazol-5-yl)amino)-2-(hydroxymethyl)tetrahydro-2H-pyran-3,4-diol] | < 100 | 
25 | CC1C(Oc2ccccc2)O[C@H](CO)[C@H](O)[C@@H]1O (stereo in doubt) [Compound A192, (2R,3R,4R,5R,6S)-2-(hydroxymethyl)-5-methyl-6-phenoxytetrahydro-2H-pyran-3,4-diol] |  | Kd [3]: > 1000 µM
26 | C=CCO[C@H]1O[C@H](CO)[C@H](O)[C@H](O)[C@H]1NC(=O)C(F)(F)F [Compound A404, N-((2S,3R,4R,5R,6R)-2-(allyloxy)-4,5-dihydroxy-6-(hydroxymethyl)tetrahydro-2H-pyran-3-yl)-2,2,2-trifluoroacetamide] | < 100 | 
27 | N#Cc1ccnc(N[C@H]2CO[C@H](CO)[C@H](O)[C@@H]2O)n1 [Compound A309] | < 100 | 
28 | N[C@H]1CO[C@H](CO)[C@H](O)[C@@H]1O [Compound A92, (2R,3R,4R,5S)-5-amino-2-(hydroxymethyl)tetrahydro-2H-pyran-3,4-diol] |  | Kd [3]: > 1000 µM
29 | CSc1nc(Cl)cc(N[C@H]2CO[C@H](CO)[C@H](O)[C@@H]2O)n1 [Compound A331, (2R,3R,4R,5S)-5-((6-chloro-2-(methylthio)pyrimidin-4-yl)amino)-2-(hydroxymethyl)tetrahydro-2H-pyran-3,4-diol] | < 100 | 
30 | OC[C@H]1OC[C@@H](Cn2cnnn2)[C@@H](O)[C@H]1O [Compound A196, (2R,3R,4R,5R)-5-((1H-tetrazol-1-yl)methyl)-2-(hydroxymethyl)tetrahydro-2H-pyran-3,4-diol] |  | Kd [3]: < 100 µM
31 | CO[C@@H]1O[C@H](CO)[C@H](O)[C@H](O)[C@H]1Nc1nc(Cl)cs1 [Compound A108] |  | Kd [3]: < 100 µM
32 | CN1CCN([C@@H]2CO[C@H](CO)[C@H](O)[C@@H]2O)C1=O [Compound A392, 1-((3R,4R,5R,6R)-4,5-dihydroxy-6-(hydroxymethyl)tetrahydro-2H-pyran-3-yl)-3-methylimidazolidin-2-one] | 100 to 500 | 
33 | Cn1cc([C@@H]2CO[C@H](CO)[C@H](O)[C@@H]2O)cn1 [Compound A394, (2R,3R,4R,5R)-2-(hydroxymethyl)-5-(1-methyl-1H-pyrazol-4-yl)tetrahydro-2H-pyran-3,4-diol] |  | Kd [1]: > 200 µM
34 | OC[C@H]1OC[C@H](Nc2nc3ccc(C(F)(F)F)cc3s2)[C@@H](O)[C@H]1O [Compound A322] |  | Kd [1]: > 20 µM
35 | C=CCO[C@H]1O[C@H](CO)[C@H](O)[C@H](O)[C@H]1Nc1nc(Cl)ns1 [Compound A405, (2R,3R,4R,5R,6S)-6-(allyloxy)-5-((3-chloro-1,2,4-thiadiazol-5-yl)amino)-2-(hydroxymethyl)tetrahydro-2H-pyran-3,4-diol] | < 100 | 
36 | CO[C@@H]1O[C@H](CO)[C@H](O)[C@H](O)[C@H]1Nc1nc(N2CCN(C)CC2)ns1 [Compound A116, (2R,3R,4R,5R,6R)-2-(hydroxymethyl)-6-methoxy-5-((3-(4-methylpiperazin-1-yl)-1,2,4-thiadiazol-5-yl)amino)tetrahydro-2H-pyran-3,4-diol] |  | Kd [3]: < 100 µM
37 | OC[C@@]12CO[C@@H](O1)[C@H](Nc1nc(Cl)nn3cccc13)[C@@H](O)[C@H]2O [Compound A291] | < 100 | 
38 | OC[C@@]12CO[C@@H](O1)[C@H](Nc1nc(Cl)ns1)[C@@H](O)[C@H]2O [Compound A287, (1S,2R,3R,4R,5S)-4-((3-chloro-1,2,4-thiadiazol-5-yl)amino)-1-(hydroxymethyl)-6,8-dioxabicyclo[3.2.1]octane-2,3-diol] | < 100 | 
39 | OC[C@H]1OC[C@@H](c2cncnc2)[C@@H](O)[C@H]1O [Compound A395, (2R,3R,4R,5R)-2-(hydroxymethyl)-5-(pyrimidin-5-yl)tetrahydro-2H-pyran-3,4-diol] |  | Kd [1]: > 200 µM
40 | OC[C@H]1OC[C@@H](N2CCOCC2)[C@@H](O)[C@H]1O [Compound A222, (2R,3R,4R,5R)-2-(hydroxymethyl)-5-morpholinotetrahydro-2H-pyran-3,4-diol] | 100 to 500 | 
41 | COc1cc(N[C@H]2[C@H]3OC[C@](CO)(O3)[C@H](O)[C@@H]2O)nc(C#N)n1 [Compound A426] | < 100 | 
